This data set in a line: xn = mol fraction of the nth substance listed. The settings on record: 100 kPa.

The viscosity is the internal friction of a fluid under shear. A lower viscosity goes with a thin fluid. `CCCCCCCCn1cc[n+](C)c1.F[B-](F)(F)F` + O: the viscosity (303 K, x1 = 0.5482) turned out to be 42.67 mPa·s; the viscosity (313 K, x1 = 0.5482) is given as 28.9 mPa·s; the viscosity (318 K, x1 = 0.5482) was 24.3 mPa·s; the viscosity (323 K, x1 = 0.5482) is 20.63 mPa·s.
Compound `CCCC[n+]1ccn(C)c1.O=[N+]([O-])[O-]` + O registered a viscosity (303 K, x1 = 0.4462) of 17.21 mPa·s; a viscosity (303 K, x1 = 0.6298) of 35.74 mPa·s; a viscosity (313 K, x1 = 0.0098) of 0.819 mPa·s; a viscosity (313 K, x1 = 0.0219) of 0.971 mPa·s; a viscosity (313 K, x1 = 0.037) of 1.24 mPa·s; a viscosity (313 K, x1 = 0.1184) of 2.753 mPa·s. Further, the viscosity by setting is: (313 K, x1 = 0.1728) 3.908 mPa·s; (313 K, x1 = 0.4462) 12.64 mPa·s; (313 K, x1 = 0.6298) 24.64 mPa·s; (318 K, x1 = 0.4462) 11 mPa·s; (318 K, x1 = 0.6298) 20.86 mPa·s; (323 K, x1 = 0.4462) 9.66 mPa·s. For the same compound, the viscosity (323 K, x1 = 0.6298) is on record as 17.88 mPa·s.

Values taken from a compilation of properties of binary mixtures (doi:10.1002/aic.14507).
